What is called EC50 is the concentration giving half of the maximal effect. In general, Emax refers to the size of the effect at its maximum, as opposed to the concentration needed.

The assay concerns the target T1, human Cystic Fibrosis Transmembrane Conductance Regulator (CFTR) harboring the ΔF508 mutation (Homo sapiens, UniProt P13569, DEL508-508).
T1 construct: expressed in transfected cells; host or cells: H441 carcinoma line (G418 selection)
Nature of the assay: H441 cell Emax and EC50: HRP-tagged ΔF508-CFTR cell surface luminescence assay. Format: cell-based. The following applies: H441 cells expressing ΔF508-CFTR-HRP, 27° C., two nights; for EC50: 15-point dose-response, top 24.5 μM; for Emax: NCI-H441, % of maximum VX809 signal. In short, it runs like this:
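Cells express ΔF508-CFTR carrying an HRP tag in extracellular loop 4 (CMV promoter); ~10K cells/well treated with a 15-point series from 24.5 µM and incubated two nights at 27° C. Surface CFTR read by luminescence from HRP substrate. EC50 and Emax given relative to maximal VX809 (260 µM stock) signal.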

T1 sequence (P13569 with tags, fused parts or gaps DEL508-508): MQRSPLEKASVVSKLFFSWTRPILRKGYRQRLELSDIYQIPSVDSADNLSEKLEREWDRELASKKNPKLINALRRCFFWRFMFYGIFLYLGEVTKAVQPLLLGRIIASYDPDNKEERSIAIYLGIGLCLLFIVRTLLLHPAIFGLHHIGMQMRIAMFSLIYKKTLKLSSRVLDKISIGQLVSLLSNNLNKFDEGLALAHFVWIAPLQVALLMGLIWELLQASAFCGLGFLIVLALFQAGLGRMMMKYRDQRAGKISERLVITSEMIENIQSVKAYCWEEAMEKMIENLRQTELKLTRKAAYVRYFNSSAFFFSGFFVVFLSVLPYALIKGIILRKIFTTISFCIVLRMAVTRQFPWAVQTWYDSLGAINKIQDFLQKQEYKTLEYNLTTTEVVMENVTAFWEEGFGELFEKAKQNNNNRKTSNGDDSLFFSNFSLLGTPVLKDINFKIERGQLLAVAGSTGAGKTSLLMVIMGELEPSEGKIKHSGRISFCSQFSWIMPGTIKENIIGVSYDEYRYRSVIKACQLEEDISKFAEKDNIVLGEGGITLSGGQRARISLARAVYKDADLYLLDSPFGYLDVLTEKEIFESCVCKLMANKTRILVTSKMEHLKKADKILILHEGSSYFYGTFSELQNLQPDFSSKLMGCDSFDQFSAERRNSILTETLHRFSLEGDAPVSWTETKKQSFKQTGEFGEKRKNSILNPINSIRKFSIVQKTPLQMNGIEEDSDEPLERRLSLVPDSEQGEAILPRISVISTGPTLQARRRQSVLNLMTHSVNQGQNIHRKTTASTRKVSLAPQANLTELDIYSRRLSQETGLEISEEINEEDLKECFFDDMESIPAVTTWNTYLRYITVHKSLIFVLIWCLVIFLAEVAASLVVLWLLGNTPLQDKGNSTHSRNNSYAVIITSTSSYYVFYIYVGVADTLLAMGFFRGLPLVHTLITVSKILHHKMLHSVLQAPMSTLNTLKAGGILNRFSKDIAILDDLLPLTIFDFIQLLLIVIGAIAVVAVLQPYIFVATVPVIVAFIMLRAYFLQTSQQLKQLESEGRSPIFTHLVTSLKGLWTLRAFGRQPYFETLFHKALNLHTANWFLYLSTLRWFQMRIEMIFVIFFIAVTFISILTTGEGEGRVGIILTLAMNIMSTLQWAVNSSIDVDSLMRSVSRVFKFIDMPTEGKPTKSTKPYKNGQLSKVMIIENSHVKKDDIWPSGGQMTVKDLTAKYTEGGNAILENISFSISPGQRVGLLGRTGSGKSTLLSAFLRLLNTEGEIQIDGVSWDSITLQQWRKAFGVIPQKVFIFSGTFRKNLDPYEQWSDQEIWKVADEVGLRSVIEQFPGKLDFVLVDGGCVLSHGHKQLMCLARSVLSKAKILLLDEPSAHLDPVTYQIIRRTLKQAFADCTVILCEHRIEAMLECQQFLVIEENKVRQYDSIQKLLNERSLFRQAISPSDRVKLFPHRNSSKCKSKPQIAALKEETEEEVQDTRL

In the case of `O=C(N[C@H](C(=O)O)C12CC3CC(Cl)(CC(Cl)(C3)C1)C2)c1ccc2ccccc2c1OCc1ccc(SC(F)(F)F)cc1` [compound 81], the EC50 is 0.113 µM and the Emax is 158%.

Regarding `C[C@H]1N(Cc2ccc(C(F)(F)F)cc2)c2c(ccc3ccccc23)C(=O)N1[C@H](C(=O)O)C12CC3CC(CC(C3)C1)C2` [compound 129, (2S)-2-(1-adamantyl)-2-[(2S)-2-methyl-4-oxo-1-[[4-(trifluoromethyl)phenyl]methyl]-2H-benzo[h]quinazolin-3-yl]acetic acid], it took 0.09 µM to reach a half-maximal effect (EC50) and the Emax was 34.9%.

Consider `O=C(N[C@H](C(=O)O)C12CC3CC(CC(C3)C1)C2)c1ccc2sccc2c1OCc1ccc(Cl)c(Cl)c1` [compound 110, (2S)-2-(1-adamantyl)-2-[[4-[(3,4-dichlorophenyl)methoxy]benzothiophene-5-carbonyl]amino]acetic acid], for which the EC50 was determined as 0.382 µM and the Emax came to 173%. In the case of `O=C(N[C@H](C(=O)O)C12CC3CC(CC(C3)C1)C2)c1ccc2occc2c1OCc1nc2ccccc2s1` [compound 122, (2S)-2-(1-adamantyl)-2-[[4-(1,3-benzothiazol-2-ylmethoxy)benzofuran-5-carbonyl]amino]acetic acid], the concentration for a half-maximal effect (EC50) was 1.51 µM and the Emax was determined as 171%. With `O=C(N[C@H](C(=O)O)C12CC3CC(CC(C3)C1)C2)c1ccc2ccccc2c1OCc1ccc(C(F)(F)C(F)(F)F)cc1` [compound 40], the EC50 came to 0.113 µM and the Emax was determined as 149%. Take `O=C(N[C@H](C(=O)O)C12CC3CC(CC(O)(C3)C1)C2)c1ccc2cc(F)ccc2c1OCc1ccc(C(F)(F)F)cc1` [compound 33]: it took 0.755 µM to reach a half-maximal effect (EC50) and the Emax stood at 100%. As to `Cc1ccc2ccc(C(=O)N[C@H](C(=O)O)C34CC5CC(CC(C5)C3)C4)c(OCc3ccc(C(F)(F)F)cc3)c2c1` [compound 18], the EC50 came to 2.18 µM and the Emax was determined as 370%. Turning to `O=C(N[C@H](C(=O)O)C12CC3CC(CC(O)(C3)C1)C2)c1ccc2sccc2c1OCc1ccc(OC(F)(F)F)cc1` [compound 109, (2S)-2-(3-hydroxy-1-adamantyl)-2-[[4-[[4-(trifluoromethoxy)phenyl]methoxy]benzothiophene-5-carbonyl]amino]acetic acid], the EC50 worked out at 1.76 µM and the Emax is 121%. Regarding `O=C(N[C@H](C(=O)O)C12CC3CC(CC(C3)C1)C2)c1ccc2ccccc2c1OCc1nc2ccccc2s1` [compound 65], the midpoint of the response, the EC50, lay at 1.32 µM and the Emax turned out to be 198%. As for `O=C(N[C@H](C(=O)O)[C@]12C[C@H]3C[C@](O)(C[C@](Cl)(C3)C1)C2)c1ccc2ccccc2c1OCc1ccc(OC(F)(F)F)cc1` [compound 80, (S)-2-((1S,3S,5R,7S)-3-chloro-5-hydroxyadamantan-1-yl)-2-(1-((4-(trifluoromethoxy)benzyl)oxy)-2-naphthamido)acetic acid], the concentration for a half-maximal effect (EC50) turned out to be 0.078 µM and the Emax came to 184%. Turning to `O=C(N[C@H](C(=O)O)C12CC3CC(CC(C3)C1)C2)c1ccc2ccccc2c1OCC1CCCCC1` [compound 52], the EC50 turned out to be 0.903 µM and the Emax was found to be 171%. Consider `O=C(N[C@H](C(=O)O)C12CC3CC(CC(O)(C3)C1)C2)c1ccc2cc(F)ccc2c1OCc1ccc(OC(F)(F)F)cc1` [compound 46], for which the Emax came to 3.8%. As to `O=C(N[C@H](C(=O)O)C12CC3CC(CC(C3)C1)C2)c1sc2ccccc2c1OCc1ccc(C(F)(F)F)cc1` [compound 15], the EC50 was 0.328 µM and the Emax was determined as 158%. Take `O=C(N[C@H](C(=O)O)C12CC3CC(CC(C3)C1)C2)c1ccc2ccccc2c1OCc1ccc(SC(F)(F)F)cc1` [compound 2]: it took 0.393 µM to reach a half-maximal effect (EC50) and the Emax amounted to 154%.

For `CC(C)Oc1ccc2c(OCc3ccc(C(F)(F)F)cc3)c(C(=O)N[C@H](C(=O)O)C34CC5CC(CC(C5)C3)C4)ccc2c1` [compound 103, (2S)-2-(1-adamantyl)-2-[[6-isopropoxy-1-[[4-(trifluoromethyl)phenyl]methoxy]naphthalene-2-carbonyl]amino]acetic acid], the EC50 was 0.397 µM and the Emax amounted to 30.2%.

Turning to `O=C(N[C@H](C(=O)O)C12CC3CC(CC(C3)C1)C2)c1ccc2sccc2c1OCc1ccc(OC(F)(F)F)cc1` [compound 111, (2S)-2-(1-adamantyl)-2-[[4-[[4-(trifluoromethoxy)phenyl]methoxy]benzothiophene-5-carbonyl]amino]acetic acid], the EC50 stood at 0.261 µM and the Emax stood at 165%. On the same counts, the results for `O=C(N[C@H](C(=O)O)C12CC3CC(CC(C3)C1)C2)c1ccc2occc2c1OCc1ccc(Cl)c(Cl)c1` [compound 120, (2S)-2-(1-adamantyl)-2-[[4-[(3,4-dichlorophenyl)methoxy]benzofuran-5-carbonyl]amino]acetic acid] are 0.265 µM and 141%.

On to `CS(=O)(=O)c1ccc(COc2c(C(=O)N[C@H](C(=O)O)C34CC5CC(CC(O)(C5)C3)C4)ccc3ccccc23)cc1` [compound 10], for which the EC50 stood at 16.9 µM and the Emax worked out at 29.2%. As to `CC12CC3(C)CC(C)(C1)CC(C(NC(=O)c1ccc4ccccc4c1OCc1ccc(OC(F)(F)F)cc1)C(=O)O)(C2)C3` (centres unmarked) [compound 82], the EC50 came to 0.201 µM and the Emax was found to be 304%. As to `O=C(N[C@H](C(=O)O)C12CC3CC(CC(O)(C3)C1)C2)c1ccc2sccc2c1OCc1ccc(C(F)(F)F)cc1` [compound 105, (2S)-2-(3-hydroxy-1-adamantyl)-2-[[4-[[4-(trifluoromethyl)phenyl]methoxy]benzothiophene-5-carbonyl]amino]acetic acid], the EC50 turned out to be 3.55 µM and the Emax is 150%. With `O=C(N[C@H](C(=O)O)C12CC3CC(CC(O)(C3)C1)C2)c1sc2ccccc2c1OCc1ccc(OC(F)(F)F)cc1` [compound 13], a half-maximal effect (EC50) was put at 3.48 µM and the Emax turned out to be 87.3%. For the compound `O=C(N[C@H](C(=O)O)C12CC3CC(CC(O)(C3)C1)C2)c1ccc2sccc2c1OCC1CCC(F)(F)CC1` [compound 108, (2S)-2-[[4-[(4,4-difluorocyclohexyl)methoxy]benzothiophene-5-carbonyl]amino]-2-(3-hydroxy-1-adamantyl)acetic acid], the EC50 worked out at 11.4 µM and the Emax came out at 78.4%. As for `O=C(N[C@H](C(=O)O)C12CC3CC(CC(C3)C1)C2)c1ccc2occc2c1OCc1ccc(C(F)(F)F)cc1` [compound 128, (2S)-2-(1-adamantyl)-2-[[4-[[4-(trifluoromethyl)phenyl]methoxy]benzofuran-5-carbonyl]amino]acetic acid], the response was half-maximal at 0.244 µM (EC50) and the Emax turned out to be 133%. Regarding `C=COc1ccc2c(OCc3ccc(C(F)(F)F)cc3)c(C(=O)N[C@H](C(=O)O)C34CC5CC(CC(C5)C3)C4)ccc2c1` [compound 63], the half-maximal effective concentration (EC50) turned out to be 0.228 µM and the Emax amounted to 54.9%.

With `O=C(N[C@H](C(=O)O)C12CC3CC(CC(Br)(C3)C1)C2)c1ccc2ccccc2c1OCc1ccc(C(F)(F)F)cc1` [compound 54], the midpoint of the response, the EC50, lay at 0.153 µM and the Emax came to 147%. As to `O=C(N[C@H](C(=O)O)C12CC3CC(CC(C3)C1)C2)c1sc2ccccc2c1OCc1nc2ccccc2s1` [compound 95], the EC50 was determined as 0.939 µM and the Emax came out at 156%. `O=C(N[C@H](C(=O)O)C12CC3CC(CC(C3)C1)C2)c1ccc2ccccc2c1OCC1(C(F)(F)F)CC1` [compound 102, (2S)-2-(1-adamantyl)-2-[[1-[[1-(trifluoromethyl)cyclopropyl]methoxy]naphthalene-2-carbonyl]amino]acetic acid]: the EC50 worked out at 18 µM and the Emax was 53.1%. `CS(=O)(=O)CCOC12CC3CC(C1)CC([C@H](NC(=O)c1ccc4cc(F)ccc4c1OCc1ccc(C(F)(F)F)cc1)C(=O)O)(C3)C2` [compound 39]: the EC50 was found to be 2.16 µM and the Emax worked out at 102%. As to `O=C(N[C@H](C(=O)O)C12CC3CC(CC(C3)C1)C2)c1ccc2occc2c1OCc1ccc(OC(F)(F)F)cc1` [compound 124, (2S)-2-(1-adamantyl)-2-[[4-[[4-(trifluoromethoxy)phenyl]methoxy]benzofuran-5-carbonyl]amino]acetic acid], the EC50 came out at 0.471 µM and the Emax amounted to 116%. `Cc1ccc2ccc(C(=O)N[C@H](C(=O)O)C34CC5CC(CC(C5)C3)C4)c(OCc3ccc(OC(F)(F)F)cc3)c2c1` [compound 34]: the EC50 turned out to be 0.489 µM and the Emax was found to be 264%. `COc1cccc2c(OCc3ccc(C(F)(F)F)cc3)c(C(=O)N[C@H](C(=O)O)C34CC5CC(CC(C5)C3)C4)ccc12` [compound 12]: the response was half-maximal at 0.709 µM (EC50) and the Emax turned out to be 154%. Regarding `CN(Cc1ccc(C(F)(F)F)cc1)c1c(CC(=O)N[C@H](C(=O)O)C23CC4CC(CC(C4)C2)C3)ccc2ccccc12` [compound 134, (2S)-2-(1-adamantyl)-2-[[2-[1-[methyl-[[4-(trifluoromethyl)phenyl]methyl]amino]-2-naphthyl]acetyl]amino]acetic acid], the Emax was -17.5%.

As for `CC(C)OC12CC3CC(C1)CC([C@H](NC(=O)c1ccc4ccccc4c1OCc1ccc(C(F)(F)F)cc1)C(=O)O)(C3)C2` [compound 11], the EC50 stood at 0.401 µM and the Emax is 157%.

`O=C(N[C@H](C(=O)O)C12CC3CC(CC(C3)C1)C2)c1cc(F)c2ccccc2c1OCc1ccc(C(F)(F)F)cc1` [compound 3]: the EC50 was 0.406 µM and the Emax stood at 156%. For `O=C(N[C@H](C(=O)O)C12CC3CC(CC(C3)C1)C2)c1ccc2ccccc2c1OCc1ccc(OC(F)F)cc1` [compound 78], the EC50 was at least 24.5 µM and the Emax was found to be 7.8%.

The values above are taken from patent US12637414B2, “Arylamides and methods of use thereof” (Genzyme Corporation, priority 2019, dated 2026).
